Measurements: publication PMC4460250, “Systems Pharmacology Dissecting Holistic Medicine for Treatment of Complex Diseases: An Example Using Cardiocerebrovascular Diseases Treated by TCM” (Evidence-based Complementary and Alternative Medicine : eCAM, 2015)

Assays:
[1] = in vivo; cited from earlier work
[2] = in vivo

SMILES | HIA(Human Intestinal Absorption) [1] | Class(High: HIA value ≥0.7; Low: HIA value < 0.7) [2]
CCN[C@@H](C)Cc1cccc(C(F)(F)F)c1 [Fenfluramine(S)] | 0.95 | High (key: High: HIA value ≥0.7; Low: HIA value < 0.7)
CCN(CCCCOC(=O)c1ccc(OC)c(OC)c1)[C@@H](C)Cc1ccc(OC)cc1 [Mebeverine(S)] | 0.9 | High (key: High: HIA value ≥0.7; Low: HIA value < 0.7)
CCCC(=O)Nc1ccc(OC[C@H](O)CNC(C)C)c(C(C)=O)c1 [Acebutolol(R)] | 0.85 | High (key: High: HIA value ≥0.7; Low: HIA value < 0.7)
CC1(C)S[C@@H]2[C@H](NC(=O)COc3ccccc3)C(=O)N2[C@H]1C(=O)O [Phenoxymethyl penicillinic acid] | 0.45 | Low (key: High: HIA value ≥0.7; Low: HIA value < 0.7)
C[C@]12CCC(=O)C=C1CC[C@@H]1[C@@H]2[C@@H](O)C[C@@]2(C)[C@H]1CC[C@]2(O)C(=O)CO [Hydrocortisone] | 0.91 | High (key: High: HIA value ≥0.7; Low: HIA value < 0.7)
COc1ccccc1OCCNC[C@@H](O)COc1cccc2[nH]c3ccccc3c12 [Carvedilol(R)] | 0.8 | High (key: High: HIA value ≥0.7; Low: HIA value < 0.7)
NS(=O)(=O)c1cc2c(cc1Cl)N[C@H](CC1CCCC1)NS2(=O)=O [Cyclopenthiazide(S)] | 1 | High (key: High: HIA value ≥0.7; Low: HIA value < 0.7)
C[C@H](C(=O)O)c1cccc(Oc2ccccc2)c1 [Fenoprofen(S)] | 0.85 | High (key: High: HIA value ≥0.7; Low: HIA value < 0.7)
C#CCN(C)[C@H](C)Cc1ccccc1 [Selegiline(R)] | 1 | High (key: High: HIA value ≥0.7; Low: HIA value < 0.7)
CC(C)NC[C@@H](O)c1ccc(O)c(O)c1 [Isoproterenol(S)] | 0.85 | High (key: High: HIA value ≥0.7; Low: HIA value < 0.7)
COC(=O)C1=C(C)NC(C)=C(C(=O)OC(C)C)[C@@H]1c1cccc2nonc12 [Isradipine(R)] | 0.92 | High (key: High: HIA value ≥0.7; Low: HIA value < 0.7)
CCOC(=O)[C@H](CCc1ccccc1)N[C@@H](C)C(=O)N1[C@H](C(=O)O)C[C@@H]2CCC[C@@H]21 [Ramipril] | 0.6 | Low (key: High: HIA value ≥0.7; Low: HIA value < 0.7)
OCCN1CCN(CC/C=C2/c3ccccc3Sc3ccc(C(F)(F)F)cc32)CC1 [Flupentixol] | 1 | High (key: High: HIA value ≥0.7; Low: HIA value < 0.7)
C[C@@H](CN(C)C)CN1c2ccccc2Sc2ccccc21 [Trimeprazine(S)] | 0.8 | High (key: High: HIA value ≥0.7; Low: HIA value < 0.7)
COc1c(N2CCN[C@@H](C)C2)c(F)cc2c(=O)c(C(=O)O)cn(C3CC3)c12 [Gatifloxacin(S)] | 0.96 | High (key: High: HIA value ≥0.7; Low: HIA value < 0.7)
N=C(N)NC(=O)c1nc(Cl)c(N)nc1N [Amiloride] | 0.5 | Low (key: High: HIA value ≥0.7; Low: HIA value < 0.7)
NC[C@@H](CC(=O)O)c1ccc(Cl)cc1 [Baclofen(S)] | 0.95 | High (key: High: HIA value ≥0.7; Low: HIA value < 0.7)
CN1CCCC1c1cccnc1 (stereo in doubt) [Nicotine(R)] | 1 | High (key: High: HIA value ≥0.7; Low: HIA value < 0.7)
COc1ccc([C@H](CN(C)C)C2(O)CCCCC2)cc1 [Venlafaxine(R)] | 0.95 | High (key: High: HIA value ≥0.7; Low: HIA value < 0.7)
CC(C)[C@H]1CC[C@H](C(=O)N[C@H](Cc2ccccc2)C(=O)O)CC1 [Nateglinide(R)] | 0.83 | High (key: High: HIA value ≥0.7; Low: HIA value < 0.7)
CC(C)(C)NC[C@H](O)COc1cccc2c1CCC(=O)N2 [Carteolol(S)] | 0.95 | High (key: High: HIA value ≥0.7; Low: HIA value < 0.7)
NS(=O)(=O)c1cc2c(cc1Cl)N[C@@H](CC1CCCC1)NS2(=O)=O [Cyclopenthiazide(R)] | 1 | High (key: High: HIA value ≥0.7; Low: HIA value < 0.7)
CC[C@@H](CO)NC(=O)[C@@H]1C=C2c3cccc4c3c(cn4C)C[C@H]2N(C)C1 [Methysergide] | 1 | High (key: High: HIA value ≥0.7; Low: HIA value < 0.7)
N=C(N)NC[C@@H]1COc2ccccc2O1 [Guanoxan(R)] | 0.5 | Low (key: High: HIA value ≥0.7; Low: HIA value < 0.7)
